Source: PubChem BioAssay (NCI)
Values joined by “and” are separate entries in the source; they are usually repeats but may differ in a detail not shown here. Equal entries are not always repeated.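 96-well plates; 48 h exposure; 5 concentrations. Endpoints by linear interpolation between flanking doses. Not reached: highest tested concentration assigned. At the GI50, growth is halved. At the TGI there is no net growth.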

Columns and labels:
Assay in all cases: NCI tumour cell line growth inhibition, 48 h
ACHN renal = system: ACHN renal
HCT-116 colon = system: HCT-116 colon
K-562 leukemia = system: K-562 leukemia
KM12 colon = system: KM12 colon
NCI-H226 lung = system: NCI-H226 lung
NCI-H23 lung = system: NCI-H23 lung
OVCAR-5 ovarian = system: OVCAR-5 ovarian
SK-MEL-28 melanoma = system: SK-MEL-28 melanoma
SW-620 colon = system: SW-620 colon
TK-10 renal = system: TK-10 renal

SMILES | GI50 (ACHN renal) | TGI (ACHN renal) | GI50 (HCT-116 colon) | TGI (HCT-116 colon) | GI50 (K-562 leukemia) | TGI (K-562 leukemia) | GI50 (KM12 colon) | TGI (KM12 colon) | GI50 (NCI-H226 lung) | TGI (NCI-H226 lung) | GI50 (NCI-H23 lung) | TGI (NCI-H23 lung) | GI50 (OVCAR-5 ovarian) | TGI (OVCAR-5 ovarian) | GI50 (SK-MEL-28 melanoma) | TGI (SK-MEL-28 melanoma) | GI50 (SW-620 colon) | TGI (SW-620 colon) | GI50 (TK-10 renal) | TGI (TK-10 renal)
O=C1/C(=C/c2ccc(F)cc2)CN(C(=O)CCN2CCC(=NO)CC2)C/C1=C\c1ccc(F)cc1 | 1.08 µM | 2.86 µM | 0.413 µM | 0.861 µM | 0.408 µM | > 49.7 µM | 0.537 µM | 1.33 µM | 2.55 µM | 8.51 µM | 1.92 µM | 4.47 µM | 1.83 µM | 4.11 µM | 1.85 µM | 4.1 µM | 0.375 µM | 1.07 µM | 2.21 µM | 6.1 µM
CC(C)c1cc(C(C)C)c(S(=O)(=O)N=[N+]=[N-])c(C(C)C)c1 |  | > 100 µM |  | > 100 µM |  | > 100 µM |  | > 100 µM |  | > 100 µM |  | > 100 µM |  | > 100 µM |  | > 100 µM |  | > 100 µM |  | > 100 µM
C#CC1=CC(=O)C(OC)=CC1=O |  | 11.3 µM |  | 40 µM |  | > 100 µM |  | > 100 µM |  | 42 µM |  | 60 µM |  | > 100 µM |  | > 100 µM |  | 40 µM |  | > 100 µM
O=C(NC(=O)c1c(Cl)nc2sccn12)Nc1ccc(Cl)cc1 |  | > 100 µM |  | > 100 µM |  | > 100 µM |  | > 100 µM |  | 89.7 µM |  | 88.1 µM |  | > 100 µM |  | > 100 µM |  | > 100 µM |  | 89.2 µM
CCCCCC(O)C(O)CCC[C@H](O)[C@H]1CC[C@H]([C@H]2CC[C@H]([C@H](O)CCCCCCCCCCCCC3=C[C@H](C)OC3=O)O2)O1 (some centres not stated) | 2.41 µM | 6.27 µM and 20.8 µM | 0.0933 µM | 38.7 µM |  | 6.4 µM | 9.78 µM | 29.1 µM | 5.25 µM | 35.9 µM |  | 23.3 µM |  | 35.4 µM | 14.7 µM | 73 µM | 7.51 µM | > 100 µM | 6.83 µM | 26.2 µM
